Results on one compound are retold here after patent US20260234173A1, “STRUCTURED MOLECULAR VECTORS FOR ANTI-INFLAMMATORY COMPOUNDS AND USES THEREOF” (Universite Claude Bernard Lyon 1, priority 2019, published 2026).

For experiment [1], the system named is immortalized human microglia (IHM). The experiment in a line: Expression of inflammation markers in immortalized human microglia activated by IL-1β (RT-qPCR). In kind it is cell-based. The following applies: pre-treated with 150 nM and 300 nM 3 hours before IL-1β (3 ng/mL); RNA after 5 hours. How it is done: Immortalized human microglia (IHM; Innoprot, Derio, Spain) were seeded at 13,000 cells/cm^2 in T75 flasks coated with type I human collagen (10 μL/mL, Coating Matrix Kit, Innoprot). The medium was formulated for optimal growth of human brain-derived microglia in vitro, and contained 1% pen/strep, 1% of microglia growth supplement and 5% fetal bovine serum (Microglial Cell Medium Kit, Innoprot).
IHM were seeded (10,000 cells/cm^2) in type 1 collagen-coated 6-well plates. When cell culture was about 80% confluent, IL-1β (R&D Systems) was added to the culture medium at 0.5 ng/mL, 1.5 ng/mL or 3.0 ng/mL. At t=0, each well received 1 mL of medium only (controls) or 1 mL of medium containing the desired concentration of IL-1β. Cells were harvested at t=0 h, t=3 h, t=8 h and t=24 h. Each tested condition was repeated as triplicates.
The effect of synaptamide phosphonate has been tested as illustrated in FIG. 5. […]
PCR amplification of targeted cDNAs was performed using the Rotor-Gene Q system (Qiagen) and the QuantiTect SYBR Green PCR Kit (Qiagen).
The ScDNA copy number measured after qPCR was used to estimate the RT step yield for each sample, taking into account that the same number of SmRNA copies was initially present in all samples before RT step. This yield made it possible to standardize the values obtained for all the genes of interest measured from the same sample. […]
(In general: In qPCR the cycle at which signal appears reflects the starting amount.)

Experiment [2] deals with Pilo-SE-induced inflammation in the hippocampus. The experiment in a line: Resolution of inflammation in hippocampus following pilocarpine-induced status epilepticus (Pilo-SE). The note with it: 2 mg/kg i.p. after 2 h of SE, hippocampus 9 h post-SE. In kind it is in vivo, rat. How it is done:
Male Sprague-Dawley rats (Envigo, The Netherlands) were subjected to Pilo-SE at 42 days of age (185 g). SE was triggered by pilocarpine hydrochlorate (350 mg/kg, i.p.), 30 min after the administration of scopolamine methylnitrate (1 mg/kg, s.c.), used to reduce peripheral side effects of pilocarpine. After 2 h of continuous SE, rats were administered with diazepam (10 mg/kg, i.p.) to stop SE, and then immediately treated with SYN (2 mg/kg, i.p.), SYN-Pn (2 mg/kg, i.p.) in 300 μL of NaCl. Non-treated rats subjected to Pilo-SE were injected with 300 μL of NaCl (i.p.) instead of SYN or SYN-Pn. All rats received a second administration of diazepam (5 mg/kg, s.c.), 1 h after the first one, and sacrificed 9 h post-SE. The brains were collected, the hippocampus microdissected on ice, the RNA extracted and RT-qPCR performed as described above using the primer pairs shown in Table 1. The time at which rats were sacrificed was chosen based on our preliminary experiments that allowed us to determine that the peak of brain inflammation was observed 7-12 hours after the onset of SE.

The subject of experiment [3] is epileptic rats (post Pilo-SE). The experiment in a line: Morris water maze (MWM) spatial learning in epileptic rats. The note with it: epileptic rats injected during the first week post-SE, tested 5 weeks post-SE, versus saline. The format is in vivo, rat. How it is done:
All injected solutions were prepared in sterile saline (0.9% w/v). At weaning (postnatal day 20 (P20)), Sprague-Dawley male rat pups were first injected i.p. with lithium chloride (127 mg/Kg; Sigma-Aldrich), to decrease the dose of pilocarpine needed to trigger Status Epilepticus (SE). Scopolamine methylnitrate (1 mg/Kg; Sigma-Aldrich) was injected s.c. 18 h later, to alleviate peripheral cholinergic adverse side effects. Pilocarpine hydrochloride (25 mg/Kg; Sigma-Aldrich) was injected i.p. 30 min later, to induce SE. After 30 min of continuous behavioral SE, diazepam (Valium®, Roche) was injected i.p. at 10 mg/Kg, to promote survival and initiate cessation of behavioral seizures, that completely stopped after a second s.c. injection of diazepam, given 90 min later at the dose of 5 mg/Kg. The rats were placed on a heated pad, under continuous observation, until they recovered from sedation. Following recovery, the rats were returned to the nursing mother until P23. Control rats only received saline injections. […]
Spatial learning ability was measured at 5 weeks post-SE by the Morris water maze (MWM). […]
The statistical analyses were performed using SigmaPlot software version 12. […] For MWM test, data were analyzed by two-way repeated measures ANOVA followed by Fisher LSD post hoc tests to compare differences between groups at several time points.

For the compound `CCC=CCC=CCC=CCC=CCC=CCC=CCCC(=O)NCCP(=O)(O)O` [synaptamide phosphonate], the “IL-1β-mediated cytokine and chemokine gene induction” value in experiment [1] is given as “dramatic reduction”. In experiment [2], the “TNFα-mRNA induction in response to Pilo-SE” value was “significant effect”; the “index integrating IL1β and TNFα: peak of the inflammatory response following Pilo-SE” value is on record as “improved effect”. Further, in experiment [2] (42-day-old rats), the “induction of IL1β mRNA in response to Pilo-SE” value is recorded as “reduced”. Moreover, the “spatial learning in MWM (latency to find the platform)” value in experiment [3] is on record as “increased average latency to find the platform”.
